Results on eight compounds are retold here after ChEMBL document CHEMBL1201862, “PubChem BioAssay data set” (2004).

Holding throughout (assay): NCI tumour cell line growth inhibition, 48 h
In test [1] the test system is NCI-H460.
For test [2], the system named is OVCAR-3.
Test [3] relates to DU-145.
Test [4] has as its system IGROV-1.
Test [5] relates to TK-10.
The test system of test [6] is 786-0.
Test [7] has as its system HCT-15.
Test [8] deals with M14.
The subject of test [9] is CAKI-1.
For test [10], the system named is COLO 205.
Test [11] has as its system HL-60.
Test [12] deals with RPMI-8226.
The subject of test [13] is SNB-19.
Test [14] relates to OVCAR-4.
For test [15], the system named is EKVX.
The subject of test [16] is HT-29.
For test [17], the system named is CCRF-CEM.
Test [18] has as its system NCI-H226.
Test [19] relates to MCF7.
Test [20] deals with Malme-3M.

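Growth conditions: 96-well plates. Treatment: test compound, 48 hours, 5 concentrations. Analysis: linear interpolation between bracketing concentrations; unreached endpoints set to highest concentration. Here, GI50 denotes the concentration required for 50% inhibition of growth.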 The source made the active and inactive calls. Cut-off read from the data, not from the text of the source: active = GI50 up to about 1.1 µM and inactive = higher. Where a SMILES comes first, the peptide text is derived from it. [ ]: non-standard residue; d: D form. The star is where a group is joined. NMeF = CN[C@@H](Cc1ccccc1)C(=O)O; NMeV = CN[C@H](C(=O)O)C(C)C; Boc = CC(C)(C)OC(=O)*; OBn = c1ccc(CO*)cc1 Some results are limits rather than exact numbers.

Take `CC(C)[C@@H](C(=O)N1CCC[C@H]1C(=O)OCc1ccccc1)N(C)C(=O)[C@H](C(C)C)N(C)C(=O)[C@H](Cc1ccccc1)N(C)C(=O)[C@H](NC(=O)OC(C)(C)C)C(C)C` (Boc-[dV][NMeF][NMeV][NMeV]P-OBn): the GI50 in test [1], in test [2], in [3], in test [4], in [5] and in [6] was > 50 µM (inactive) throughout. The GI50 in test [7] was 17.3 µM; in [8] it was > 50 µM (inactive); in [9] it was > 50 µM (inactive); in test [10], > 50 µM (inactive); in test [11] it was > 50 µM (inactive); in test [12] it was > 50 µM (inactive). Besides, the GI50 in test [13], in [14], in [15], in test [16], in test [17] and in [18] was > 50 µM (inactive) in each case. Moreover, in test [19], the GI50 is > 50 µM (inactive).
In the case of `O=C1C/C(=C\O)C(=O)c2ccccc2N1`, the GI50 in [1], in [2], in [3], in [4], in [5] and in test [6] was > 100 µM (inactive) in each case. For the same compound, the GI50 in [7] was greater than 100 µM; in [8] it was > 100 µM (inactive); in [9] it was > 100 µM (inactive); in test [10], > 100 µM (inactive); in [11], > 100 µM (inactive); in [20], > 100 µM (inactive). Besides, the GI50 in test [13], in test [14], in [15], in test [16], in test [17] and in [18] was > 100 µM (inactive) each time. Also, in [19], the GI50 is > 100 µM (inactive).
As for `CC(C)c1ccc2nc3ccc(C(=O)NCCN(C)C)cn3c(=O)c2c1`, the GI50 in [1] is 17.6 µM (inactive); in test [2], 29.2 µM (inactive); in test [3], 34.7 µM (inactive); in test [4] it was 30.8 µM (inactive); in test [5] it was 17.3 µM (inactive); in test [6], 14.6 µM (inactive). Further, the GI50 is 13.8 µM in [7]; 14.6 µM (inactive) in test [8]; 23.1 µM (inactive) in test [9]; 16.2 µM (inactive) in [10]; 16.3 µM (inactive) in test [11]; 3.37 µM (inactive) in test [20]. For the same compound, the GI50 in [13] is 35 µM (inactive); in [14], 24.7 µM (inactive); in test [15], 16.4 µM (inactive); in [16] it was 7.74 µM (inactive); in test [17], 14.9 µM (inactive); in test [18], 18 µM (inactive). For the same compound, the GI50 in [19] is 16.3 µM (inactive).
For the compound `Cn1c2ccccc2n2c3ccccc3c(=S)c(C#N)c12`, the GI50 is > 100 µM (inactive) in test [1]; > 100 µM (inactive) in test [2]; > 100 µM (inactive) in [3]; > 100 µM (inactive) in test [4]; > 100 µM (inactive) in test [5]; 92.3 µM (inactive) in test [6]. In addition, the GI50 in test [7] was greater than 100 µM; in test [8], > 100 µM (inactive); in test [9], > 100 µM (inactive); in [10] it was > 10 µM (inactive); in [11], > 100 µM (inactive); in test [12], > 100 µM (inactive). The GI50 in test [13], in [14], in test [15], in [16], in test [17] and in [18] was > 100 µM (inactive) throughout. For the same compound, the GI50 in test [19] is > 100 µM (inactive).
As for `CNc1ccccc1S(=O)(=O)c1ccccc1[N+](=O)[O-]`, the GI50 in [1] was 58.7 µM (inactive); in test [2] it was 68.4 µM (inactive); in [3], > 100 µM (inactive); in test [4], > 100 µM (inactive); in test [5] it was > 100 µM (inactive); in test [6], > 100 µM (inactive). Moreover, the GI50 in test [7] is 46.3 µM; in test [8] it was 52.7 µM (inactive); in test [10], > 100 µM (inactive); in test [11], 40 µM (inactive); in test [12], > 100 µM (inactive); in test [20] it was 99.8 µM (inactive). Further, the GI50 in [13] is 74 µM (inactive); in test [14] it was 27.2 µM (inactive); in [15], > 100 µM (inactive); in [16], 93.8 µM (inactive); in test [17], 43.5 µM (inactive); in test [18] it was 65.6 µM (inactive). For the same compound, the GI50 in test [19] was 85.1 µM (inactive).
In the case of `O=c1ccn(C2OC(CO)C(O)C2[Se]c2ccccc2)c(=O)[nH]1` (stereo not given), the GI50 was > 100 µM (inactive) in test [1]; > 100 µM (inactive) in [2]; > 100 µM (inactive) in test [3]; > 100 µM (inactive) in [4]; 0.24 µM (active) in [5]; > 100 µM (inactive) in test [6]. The GI50 is greater than 100 µM in test [7]; > 100 µM (inactive) in test [8]; > 100 µM (inactive) in test [9]; > 100 µM (inactive) in test [10]; > 100 µM (inactive) in test [11]; > 100 µM (inactive) in test [20]. Besides, the GI50 in test [13], in [14], in [15], in test [16], in test [17] and in [18] was > 100 µM (inactive) throughout. Further, the GI50 in [19] is > 100 µM (inactive).
Turning to `O=C(NN1C(=O)C(Cl)C1c1ccc(Cl)cc1)c1c(Cl)c(Cl)c(Cl)c(Cl)c1-c1nc2ccccc2[nH]1` (stereo not given), the GI50 in test [1] was 16.7 µM (inactive); in [2], 27.8 µM (inactive); in test [3], 16.4 µM (inactive); in test [4] it was 3.61 µM (inactive); in [6], 16.5 µM (inactive); in test [7] it was 17.6 µM. For the same compound, the GI50 in test [8] was 20.8 µM (inactive); in [9], 3.73 µM (inactive); in test [10] it was 18.3 µM (inactive); in test [11], 25.4 µM (inactive); in test [20] it was 21.1 µM (inactive); in [13] it was 36.1 µM (inactive). Further, the GI50 is 20.7 µM (inactive) in [15]; 25.2 µM (inactive) in [16]; 8.39 µM (inactive) in test [17]; 22.1 µM (inactive) in [18]; 12.7 µM (inactive) in test [19].
In the case of `COc1cccc(-c2nc(N)c(C#N)c3c2CCS(=O)(=O)c2ccc(C)cc2-3)c1`, the GI50 in test [1] was 10.8 µM (inactive); in test [2], 21 µM (inactive); in [3], 37.6 µM (inactive); in [4], 15.2 µM (inactive); in test [5] it was > 68.9 µM (inactive); in test [6], 22.6 µM (inactive). For the same compound, the GI50 in test [7] is 7.87 µM; in test [8] it was 25.7 µM (inactive); in [9], 9.98 µM (inactive); in test [10], 8.05 µM (inactive); in test [11] it was 5.08 µM (inactive); in test [20], 18.2 µM (inactive). Also, the GI50 is > 31.3 µM (inactive) in test [13]; > 100 µM (inactive) in test [14]; 50.6 µM (inactive) in test [15]; 9.68 µM (inactive) in test [16]; 14.6 µM (inactive) in test [17]; > 51.5 µM (inactive) in [18]. For the same compound, the GI50 in test [19] was 37.9 µM (inactive).
